In patent publication US20190358199A1 (priority 2010, published 2019):

Tests used:
symptoms of depression = details: eight weeks of treatment; Sepracor Press Release, Jul. 1, 2009; cited from earlier work
[1] = Six-week double-blind placebo-controlled Phase 2 study, safety and tolerability; assay type: in vivo, human
Method: Subjects were evaluated for safety parameters prior to and throughout the trial by a variety of measures including electrocardiogram, physical examination, vital signs and body weight, and clinical laboratory testing including a lipid panel, CBC with differential and urinalysis, Samples were drawn to assess total bilirubin, alkaline phosphatase, ALT (SGPT), AST (SGOT), blood urea nitrogen (BUN), creatinine, glucose, uric acid, calcium, phosphorus, total protein, albumin, total cholesterol, LDL, HDL, triglycerides, sodium, potassium, bicarbonate, chloride, GGT and creatine kinase, Hepatitis B, C and HIV serologies, TSH, drug screen and serum pregnancy test for females.
(§1) • Visits and evaluations were performed according to the following schedule of events: • Visit 1: Screening Visit: • The following was obtained/performed at the Screening Visit (Visit 1): • Written informed consent • Medical history including: • Relevant demographic information • Detailed medical and surgical history, including review of systems • Whenever possible, the patient's medical history was confirmed by medical records. • Prior medication: Medication taken by the patients 30 days prior to the Screening Visit was recorded. • AE assessment • Height (cm) • Weight (kg); BMI was determined and was ≤35 for the patient to be randomized • Complete physical examination • MINI diagnostic exam • Vital signs (respiratory rate, oral temperature (° C.), blood pressure, pulse). […] The capsules were taken for 7 days prior to the Baseline/Day 1 Visit (Visit 3). The first dose of placebo was taken at the clinic with 240 mL of water after a light meal. • Patients were provided with a diary to record the date, time and dosage of each dose.
(§2) Efficacy was determined by measuring the change from baseline in the Montgomery-Åsberg Depression Rating Scale (MADRS), the HAMD-17, the Clinical Global Impression Global Improvement Scale (CGI-I), the Clinical Global Impression-Severity scale (CGI-S) and the Derogatis Interview for Sexual Functioning Self-Report (DISF-SR). […] Comparisons between treatment groups based on MADRS (the primary efficacy parameter), HAMD-17, Anhedonia, DISF-SR, CGI-I and CGI-S scores were analyzed using a mixed-repeated measures (MMRM) analysis model including factors for Subject, Visit, Treatment Arm and Baseline value as a covariate. Adjusted least-squares means from these models are presented. Comparisons between groups were made at each post-baseline visit using model-based contrasts and adjusted degrees of freedom. For these analyses no explicit data imputations were made prior to the analysis. Response and remission categorical data were analyzed using chi-square tests. Inferential analyses of safety data were conducted with ANOVA models or chi-square tests. Two-tail alpha was set to 0.05. All analyses were conducted using SAS version 9.2.

[2] = test system: patients with Major Depressive Disorder; assay: Six-week double-blind placebo-controlled Phase 2 study, efficacy; assay type: in vivo, human
From the text: Subjects were identified who were between the ages of 18-65 (inclusive), and met criteria for Major Depressive Disorder in accordance with the Diagnostic and Statistical manual of Mental Disorders-IV-TR and confirmed by the MINI International Neuropsychiatric Interview.
Subjects were required to refrain from taking antidepressants, anticonvulsants including gabapentin and pregabalin, neuroleptics, MAO inhibitors, barbiturates, benzodiazepines, stimulants, antipsychotics, lithium, anxiolytics and beta blockers starting two weeks prior to the study and continuing until after the follow-up visit.
as §1, §2

For `N[C@@H]1CC[C@@H](c2ccc(Cl)c(Cl)c2)c2ccccc21` [SEP-225289], the “primary efficacy endpoint compared to placebo (reduction in symptoms of depression, 17-item HAM-D)” value (symptoms of depression) is listed as “did not meet the primary efficacy endpoint compared to placebo”.
With `Clc1ccc([C@]23CNC[C@H]2C3)cc1Cl` [(+)-1-(3,4-dichlorophenyl)-3-azabicyclo[3.1.0]hexane] the “percentage of patients who reported an adverse treatment event” value ([1]; 10 patients, placebo 11 or 39.28%) was 30.30%, the “Treatment-Emergent Adverse Events: Abdominal Pain (NOS) (% of Patients)” value ([1]; n = 33) was 2 (6.06%) and the “Treatment-Emergent Adverse Events: Anxiety (% of Patients)” value ([1]; n = 33) was 2 (6.06%). For the same compound, the “Treatment-Emergent Adverse Events: Diarrhea NOS (% of Patients)” value ([1]; n = 33) was 2 (6.06%), the “Treatment-Emergent Adverse Events: Emotional Disturbance NOS (% of Patients)” value ([1]; n = 33) was 2 (6.06%) and the “Treatment-Emergent Adverse Events: Headache NOS (% of Patients)” value ([1]; n = 33) was 3 (9.09%). The “Treatment-Emergent Adverse Events: Irritability (% of Patients)” value ([1]; n = 33) was 2 (6.06%), the “Treatment-Emergent Adverse Events: Nausea (% of Patients)” value ([1]; n = 33) was 2 (6.06%) and the “Treatment-Emergent Adverse Events: Rash NOS (% of Patients)” value ([1]; n = 33) was 2 (6.06%). The “Treatment-Emergent Adverse Events: Upper Respiratory Tract Infection NOS (% of Patients)” value ([1]; n = 33) was 2 (6.06%), the “patients who discontinued the study early due to AEs” value ([1]; same number in the placebo group) was “Two” and the “serious AEs” value ([1]; six-week study) was “no serious AEs were reported”. For the same compound, the “Response rate, MADRS” value ([2]; Visit 8, LOCF, Completers, 100 mg, 50% reduction or more of baseline total score, 8/20) was 40.00%, the “Response rate, HAMD-17” value ([2]; Visit 8, LOCF, Completers, 100 mg, 50% reduction or more of baseline total score, 11/20) was 55.00% and the “Remission rate, HAMD-17” value ([2]; Visit 8, LOCF, Completers, 100 mg, HAMD-17 ≤ 7, 4/20) was 20.00%. The “Remission rate, MADRS” value ([2]; Visit 8, LOCF, Completers, 100 mg, MADRS ≤ 12, 6/20) was 30.00%, the “CGI-S LS mean, Difference placebo vs drug” value ([2]; Visit 8, MMRM, MITT, 95% CI (−0.21, 0.66), P = 0.306) was 0.22 and the “overall statistical effect size (Cohen's d), MADRS total score vs placebo” value ([2]; Week 6, MMRM) was −0.63.
